Read-outs that look alike come from different tables or passages of the source.
Key:
[1] = molecular target: recombinant SARS-CoV-2 Main protease (Mpro) (Severe acute respiratory syndrome coronavirus 2 (2019-nCoV) (SARS-CoV-2), UniProt P0DTD1); experiment: Cov Mpro Biochemical IC50 Assay; conditions: recombinant SARS-CoV-2 Mpro, fluorogenic peptide substrate; read-out: MPro IC50
SARS-CoV-2-NLuc = experiment: microbe, parasite or virus in culture; format: cell-based, SARS Coronavirus 2
[2] = Severe acute respiratory syndrome coronavirus, 48 h, read-out: MPro EC50
[3] = Severe acute respiratory syndrome coronavirus, 48 h; read-out: MPro EC50

Structure (SMILES) | IC50 [1] [µM] | EC50 (SARS-CoV-2-NLuc; [2]) [µM] | EC50 (SARS-CoV-2-NLuc; read-out: MPro EC50) [µM] | EC50 (SARS-CoV-2-NLuc; [3]) [µM]
O=c1[nH]c2c(Cl)c(-c3ccccc3Cl)ccc2c(=O)n1-c1cncc2ccccc12 [Example 79] | 14 | 12.1 | – | –
O=c1[nH]c2cc(-c3ccccc3Cl)c(OC3CC3)cc2c(=O)n1-c1cncc2ccccc12 [Example 80] | 0.768 | 0.232 | – | –
Cc1cc2c(=O)n(-c3cncc4ccccc34)c(=O)[nH]c2cc1-c1ccccc1Cl [Example 81] | 0.231 | 0.184 | – | –
O=c1[nH]c2c(F)c(-c3ccccc3Cl)ccc2c(=O)n1-c1cncc2ccccc12 [Example 82] | 1.37 | 2.86 | – | –
COc1cc2c(=O)n(-c3cncc4ccccc34)c(=O)[nH]c2cc1-c1ccccc1Cl [Example 83] | 0.109 | 0.122 | – | –
O=c1[nH]c2cc(-c3ccsc3Cl)ccc2c(=O)n1-c1cncc2ccccc12 [Example 84] | 0.604 | 1.03 | – | –
O=c1[nH]c2cc(-c3ccsc3-c3ccsc3Cl)ccc2c(=O)n1-c1cncc2ccccc12 [Example 85] | 1.49 | 0.751 | – | –
O=c1[nH]c2cc(-c3c(Cl)cccc3OCc3cscn3)ccc2c(=O)n1-c1cncc2ccccc12 [Example 86, 7-[2-chloro-6-(thiazol-4-ylmethoxy)phenyl]-3-(4-isoquinolyl)-1H-quinazoline-2,4-dione] | 0.112 | – | 0.144 | –
Cc1nc(COc2cccc(Cl)c2-c2ccc3c(=O)n(-c4cncc5ccccc45)c(=O)[nH]c3c2)co1 [Example 87] | 0.172 | 0.203 | – | –
Cn1cnc(COc2cccc(Cl)c2-c2ccc3c(=O)n(-c4cncc5ccccc45)c(=O)[nH]c3c2)n1 [Example 88] | 0.233 | 0.63 | – | –
COc1cccc(C)c1-c1ccc2c(=O)n(-c3cncc4ccccc34)c(=O)[nH]c2c1 [Example 89] | 0.86 | 0.881 | – | –
Cn1cnc(COc2ccc(Cl)c(-c3ccc4c(=O)n(-c5cncc6ccccc56)c(=O)[nH]c4c3)c2)n1 [Example 90] | 0.487 | 0.886 | – | –
NC(=O)COc1cccc(Cl)c1-c1ccc2c(=O)n(-c3cncc4ccccc34)c(=O)[nH]c2c1 [Example 91] | 0.216 | 1.14 | – | –
COc1ccc(Cl)c(-c2ccc3c(=O)n(-c4cncc5ccccc45)c(=O)[nH]c3c2)c1 [Example 92, 7-(2-chloro-5-methoxy-phenyl)-3-(4-isoquinolyl)-1H-quinazoline-2,4-dione] | 0.0339 | 0.0375 | – | –
O=c1[nH]c2cc(-c3c(Cl)cccc3OCc3ccnnc3)ccc2c(=O)n1-c1cncc2ccccc12 [Example 93] | 0.0114 | 0.095 | – | –
Cc1nccnc1COc1cccc(Cl)c1-c1ccc2c(=O)n(-c3cncc4ccccc34)c(=O)[nH]c2c1 [Example 94] | 0.21 | 0.269 | – | –
O=c1[nH]c2cc(-c3c(Cl)cccc3Cl)ccc2c(=O)n1-c1cncc2ccccc12 [Example 95, 7-(2,6-dichlorophenyl)-3-(isoquinolin-4-yl)quinazoline-2,4(1H,3H)-dione] | 1.59 | – | – | 0.68
Cc1cccc(C#N)c1-c1ccc2c(=O)n(-c3cncc4ccccc34)c(=O)[nH]c2c1 [Example 96] | 0.151 | 0.296 | – | –
Cc1cccc(-c2ccccc2)c1-c1ccc2c(=O)n(-c3cncc4ccccc34)c(=O)[nH]c2c1 [Example 97] | 0.397 | 0.266 | – | –

Structure (SMILES) | IC50 [1] [µM] | EC50 (SARS-CoV-2-NLuc; [2]) [µM] | EC50 (SARS-CoV-2-NLuc; read-out: MPro EC50) [µM] | EC50 (SARS-CoV-2-NLuc; [3]) [µM]
N#Cc1cccc(Cl)c1-c1ccc2c(=O)n(-c3cncc4ccccc34)c(=O)[nH]c2c1 [Example 98] | 0.213 | 0.198 | – | –
O=c1[nH]c2cc(-c3c(Cl)cccc3CO)ccc2c(=O)n1-c1cncc2ccccc12 [Example 99] | 0.216 | 0.492 | – | –
COCc1cccc(Cl)c1-c1ccc2c(=O)n(-c3cncc4ccccc34)c(=O)[nH]c2c1 [Example 100] | 0.326 | 0.448 | – | –
O=c1[nH]c2cc(-c3c(Cl)cccc3-c3ccnnc3)ccc2c(=O)n1-c1cncc2ccccc12 [Example 101, 7-(2-chloro-6-(pyridazin-4-yl)phenyl)-3-(isoquinolin-4-yl)quinazoline-2,4(1H,3H)-dione] | 0.0137 | – | – | 0.0738
Cc1cc(-c2cccc(Cl)c2-c2ccc3c(=O)n(-c4cncc5ccccc45)c(=O)[nH]c3c2)cn2ncnc12 [Example 102] | 0.0157 | 0.0161 | – | –
O=c1[nH]c2cc(-c3c(Cl)cccc3-c3ccccc3)ccc2c(=O)n1-c1cncc2ccccc12 [Example 103] | 0.388 | 0.0834 | – | –
Cc1ccc2cncc(-n3c(=O)[nH]c4cc(-c5ccccc5Cl)sc4c3=O)c2c1 [Example 106, 6-(2-chlorophenyl)-3-(6-methylisoquinolin-4-yl)thieno[3,2-d]pyrimidine-2,4(1H,3H)-dione] | 0.0237 | – | – | 0.073
O=c1[nH]c2cc(-c3ccccc3Cl)sc2c(=O)n1-c1cncc2c1CCC2 [Example 107] | 0.0318 | 0.0717 | – | –
O=c1[nH]c2cc(-c3ccccc3Cl)sc2c(=O)n1-c1cncc2c1CCCC2 [Example 108] | 0.00923 | 0.0714 | – | –
Cc1ccc2cncc(-n3c(=O)[nH]c4cc(-c5ccccc5Cl)ccc4c3=O)c2c1 [Example 109] | 0.265 | 0.423 | – | –
O=c1[nH]c2cc(-c3c(Cl)cccc3Cl)sc2c(=O)n1-c1cncc2ccccc12 [Example 110, 6-(2,6-dichlorophenyl)-3-(isoquinolin-4-yl)thieno[3,2-d]pyrimidine-2,4(1H,3H)-dione] | 0.372 | – | – | 0.275
Cc1cc(-c2cccc(Cl)c2-c2cc3[nH]c(=O)n(-c4cncc5ccccc45)c(=O)c3s2)cnn1 [Example 111, 6-(2-chloro-6-(6-methylpyridazin-4-yl)phenyl)-3-(isoquinolin-4-yl)thieno[3,2-d]pyrimidine-2,4(1H,3H)-dione] | 0.00688 | – | – | 0.0789
O=c1[nH]c2cc(-c3c(Cl)cccc3-c3ccnnc3)sc2c(=O)n1-c1cncc2ccccc12 [Example 112] | 0.00519 | 0.0392 | – | –
Cc1cc(-c2cccc(Cl)c2-c2cc3[nH]c(=O)n(-c4cncc5ccccc45)c(=O)c3s2)cn2ncnc12 [Example 113] | 0.00731 | < 0.00731 | – | –
Cc1c(-c2cccc(Cl)c2-c2cc3[nH]c(=O)n(-c4cncc5ccccc45)c(=O)c3s2)cn2ncnc2c1C [Example 114] | 0.0109 | 0.0444 | – | –
O=c1[nH]c2cc(-c3ccccc3Cl)sc2c(=O)n1-c1cnccc1N1CCNCC1 [Example 115, 6-(2-chlorophenyl)-3-(4-(piperazin-1-yl)pyridin-3-yl)thieno[3,2-d]pyrimidine-2,4(1H,3H)-dione] | 0.522 | – | – | 1.53
O=c1[nH]c2cc(-c3ccccc3Cl)ccc2c(=O)n1-c1cnccc1N1CCNCC1 [Example 116, 7-(2-chlorophenyl)-3-(4-(piperazin-1-yl)pyridin-3-yl)quinazoline-2,4(1H,3H)-dione] | 0.797 | – | – | 3.2
O=c1[nH]c2cc(-c3ccccc3Cl)sc2c(=O)n1-c1cnccc1N1CCN(C2COC2)CC1 [Example 117, 6-(2-chlorophenyl)-3-(4-(4-(oxetan-3-yl)piperazin-1-yl)pyridin-3-yl)thieno[3,2-d]pyrimidine-2,4(1H,3H)-dione] | 0.156 | – | – | 0.627

— patent US20240116946A1 (Gilead Sciences, Inc., priority 2022, published 2024)
